From the NIST ThermoML archive (doi:10.1016/j.jct.2010.12.019)
Values joined by “and” are separate entries in the source; they are usually repeats but may differ in a detail not shown here. Identical values can stand only once. ± gives the expanded uncertainty stated by the source.

How the values were obtained:
[1] = 293.15 K; 101.33 kPa; Liquid; Pycnometric method
[2] = activity coefficient (dimensionless); of the first substance listed, at infinite dilution; xn = mol fraction of the nth substance listed; settings: Liquid, Chromatography, x1 = 0

| Compound | mass density [1] [kg/m3] | activity coefficient ([2]; 313.15 K) | activity coefficient ([2]; 323.15 K) | activity coefficient ([2]; 333.15 K) |
| --- | --- | --- | --- | --- |
| CCCCn1cc[n+](C)c1.[F][Sb-]([F])([F])([F])([F])[F] [1-butyl-3-methylimidazolium hexafluoroantimonate] | 1694.3 ± 3.8 | – | – | – |
| C=CCCCCC [1-heptene] + CCCCn1cc[n+](C)c1.[F][Sb-]([F])([F])([F])([F])[F] | – | 19.3 and 21.1 | 17.8 and 19.7 | 15.9 and 16.6 |
| C#CCCCCC [1-heptyne] + CCCCn1cc[n+](C)c1.[F][Sb-]([F])([F])([F])([F])[F] | – | 5.74 and 6.11 | 5.82 and 6.08 | 5.74 and 6.23 |
| C#CCCCC [1-hexyne] + CCCCn1cc[n+](C)c1.[F][Sb-]([F])([F])([F])([F])[F] | – | 4.26 and 4.05 | 4.11 and 4.23 | 4.1 and 4.32 |
| C=CCCCCCCC [1-nonene] + CCCCn1cc[n+](C)c1.[F][Sb-]([F])([F])([F])([F])[F] | – | 32.4 and 32.6 | 30.8 and 33.4 | 30.8 and 32.6 |
| C#CCCCCCCC [1-nonyne] + CCCCn1cc[n+](C)c1.[F][Sb-]([F])([F])([F])([F])[F] | – | 11.4 and 11.6 | 10.9 and 11.8 | 10.9 and 11.6 |
| C#CCCCCCC [1-octyne] + CCCCn1cc[n+](C)c1.[F][Sb-]([F])([F])([F])([F])[F] | – | 8.68 and 9.4 | 8.82 and 9.08 | 8.56 and 8.99 |
| C=CCCC [1-pentene] + CCCCn1cc[n+](C)c1.[F][Sb-]([F])([F])([F])([F])[F] | – | 10.1 and 10.5 | 10.2 ± 0.9 | 9.94 and 10.4 |
| C#CCCC [1-pentyne] + CCCCn1cc[n+](C)c1.[F][Sb-]([F])([F])([F])([F])[F] | – | 2.8 and 2.88 | 2.89 and 2.9 | 2.93 and 3.03 |
| CC(C)=O [acetone] + CCCCn1cc[n+](C)c1.[F][Sb-]([F])([F])([F])([F])[F] | – | 0.403 and 0.437 | 0.445 and 0.466 | 0.463 and 0.487 |
| c1ccccc1 [benzene] + CCCCn1cc[n+](C)c1.[F][Sb-]([F])([F])([F])([F])[F] | – | 1.23 and 1.31 | 1.28 and 1.37 | 1.31 and 1.37 |
| CCC(C)=O [butanone] + CCCCn1cc[n+](C)c1.[F][Sb-]([F])([F])([F])([F])[F] | – | 0.648 and 0.632 | 0.681 ± 0.058 | 0.702 and 0.718 |
| C1CCCCCC1 [cycloheptane] + CCCCn1cc[n+](C)c1.[F][Sb-]([F])([F])([F])([F])[F] | – | 20 and 18.7 | 15.7 and 21.1 | 17.3 and 18.2 |
| C1CCCCC1 [cyclohexane] + CCCCn1cc[n+](C)c1.[F][Sb-]([F])([F])([F])([F])[F] | – | 16.4 and 15.4 | 11 and 18.6 | 14.1 and 14.6 |
| C1CCCCCCC1 [cyclooctane] + CCCCn1cc[n+](C)c1.[F][Sb-]([F])([F])([F])([F])[F] | – | 22.9 and 23.4 | 17.2 and 27.1 | 20.4 and 21.5 |
| C1CCCC1 [cyclopentane] + CCCCn1cc[n+](C)c1.[F][Sb-]([F])([F])([F])([F])[F] | – | 11.4 and 11.9 | 10.6 and 10.9 | 10.2 and 10.7 |
| CCO [ethanol] + CCCCn1cc[n+](C)c1.[F][Sb-]([F])([F])([F])([F])[F] | – | 2.33 and 2.46 | 2.14 and 2.3 | 2.01 and 2.07 |
| CCc1ccccc1 [ethylbenzene] + CCCCn1cc[n+](C)c1.[F][Sb-]([F])([F])([F])([F])[F] | – | 3.11 and 2.92 | 3.09 and 3.23 | 3.18 and 3.45 |
| CCCCCCC [heptane] + CCCCn1cc[n+](C)c1.[F][Sb-]([F])([F])([F])([F])[F] | – | 37.1 and 38.7 | 34.2 and 35.8 | 31.4 and 34.4 |
| C=CCCCC [hex-1-ene] + CCCCn1cc[n+](C)c1.[F][Sb-]([F])([F])([F])([F])[F] | – | 14 and 13.1 | 13 and 14.1 | 13.4 and 13.8 |
| CCCCCC [hexane] + CCCCn1cc[n+](C)c1.[F][Sb-]([F])([F])([F])([F])[F] | – | 28.6 and 27.9 | 26.4 and 28.2 | 26 and 26.6 |
| CO [methanol] + CCCCn1cc[n+](C)c1.[F][Sb-]([F])([F])([F])([F])[F] | – | 1.7 and 1.88 | 1.64 and 1.71 | 1.57 ± 0.13 |
| CCCCCCCCC [nonane] + CCCCn1cc[n+](C)c1.[F][Sb-]([F])([F])([F])([F])[F] | – | 47.7 and 48.8 | 44.9 and 49.1 | 44.1 and 47.3 |
| C=CCCCCCC [oct-1-ene] + CCCCn1cc[n+](C)c1.[F][Sb-]([F])([F])([F])([F])[F] | – | 25.7 ± 2.2 | 24.6 and 25.7 | 24.2 and 24.9 |
| CCCCCCCC [octane] + CCCCn1cc[n+](C)c1.[F][Sb-]([F])([F])([F])([F])[F] | – | 40.4 and 44.6 | 39.5 and 42.7 | 39.2 and 42.7 |
| CCCCC [pentane] + CCCCn1cc[n+](C)c1.[F][Sb-]([F])([F])([F])([F])[F] | – | 19.6 and 21.5 | 17.6 and 18.3 | 17 and 18.1 |
| CCCO [propan-1-ol] + CCCCn1cc[n+](C)c1.[F][Sb-]([F])([F])([F])([F])[F] | – | 3.13 and 3.22 | 2.82 and 2.96 | 2.51 and 2.75 |
| Cc1ccccc1 [toluene] + CCCCn1cc[n+](C)c1.[F][Sb-]([F])([F])([F])([F])[F] | – | 1.87 and 1.78 | 1.88 and 1.94 | 1.92 and 1.97 |
